The conditions of data set [1]: 14-membered ring.
The target in a further data set is T1, BCL6 (Homo sapiens, UniProt P41182).
T1 construct: Endogenous BCL6 was tagged with the 11-amino acid SmBiT through CRISPR/Cas9 gene editing; endogenous in cells; host or cells: Su-DHL-4 cells, CRISPR/Cas9 knock-in single cell clone
Nature of the data set: HiBiT cellular degradation assay (Promega) in Su-DHL-4 cells. It is filed as cell-based. The settings on record: concentration to reach 50% degradation; endogenous BCL6 tagged with SmBiT in Su-DHL-4 cells; 24 hr of compound treatment; relative to DMSO control. On the procedure: DC50 (concentration to reach 50% degradation) values were determined from a cellular degradation assay (HiBiT, Promega™) in Su-DHL-4 cells (Table 1). Endogenous BCL6 was tagged with the 11-amino acid SmBiT through CRISPR/Cas9 gene editing and single cell clone selection. After 24 hr of compound treatment, cells were lysed and incubated with LgBiT protein to reconstitute intact nanoluciferase. Substrate was then added and relative luciferase units were measured. Degradation levels for each treatment were taken as a percentage compared to the control, 100% DMSO (Prism).

Like-named read-outs stand apart in the source and are kept apart here. Where only a bound is given, the exact number is not on record here.

Consider `CC1CN2CC(NC(=O)COc3cc(cc4[nH]c(=O)n(C)c34)Nc3nc2ncc3F)C1(F)F` (stereo not drawn), for which, in data set [1] (from CC1CN(c2ncc(F)c(Nc3cc(OCC(=O)O)c4c(c3)[nH]c(=O)n4C)n2)CC(N)C1(F)F, amide bond, HATU/DIEA, DMF, 148.0 mM, 15.0 °C, 2.0 h), the ring closure, isolated yield was found to be 74%.

As for `C[C@@H]1C[C@H]2CN(C1)c1ncc(Cl)c(n1)Nc1cc(c3c(c1)[nH]c(=O)n3C)OCCN2`, the ring closure, isolated yield in data set [1] (from C[C@@H]1C[C@H](N)CN(c2ncc(Cl)c(Nc3cc(OCCCl)c4c(c3)[nH]c(=O)n4C)n2)C1, amine bond, K2CO3/NaI, DMF, 11.5 mM, 100.0 °C, 36.0 h) was determined as 42%.

Consider `C[C@@H]1C[C@H]2CN(C1)c1ncc(Cl)c(n1)Nc1cc(c3c(c1)[nH]c(=O)n3C)OCCO2`, for which, in data set [1] (from C[C@H]1CNC[C@@H](OCCOc2cc(Nc3nc(Cl)ncc3Cl)cc3[nH]c(=O)n(C)c23)C1, snar bond, DIEA, DMSO, 38.3 mM, 80.0 °C, 12.0 h), the ring closure, isolated yield was 12%.

`C[C@H]1CN2C[C@@H](OCCOc3cc(cc4[nH]c(=O)n(C)c34)Nc3nc2ncc3Cl)C1(F)F` had a ring closure, isolated yield in data set [1] (from C[C@H]1CNC[C@@H](OCCOc2cc(Nc3nc(Cl)ncc3Cl)cc3[nH]c(=O)n(C)c23)C1(F)F, snar bond, DIEA, DMSO, 49.7 mM, 80.0 °C, 24.0 h) of 30%.

In data set [1] (from C[C@@H]1CNC[C@H](OCCOc2cc(Nc3nc(Cl)ncc3Cl)cc3[nH]c(=O)n(C)c23)C1, snar bond, DIEA, DMSO, 18.4 mM, 80.0 °C, 12.0 h), `C[C@H]1C[C@@H]2CN(C1)c1ncc(Cl)c(n1)Nc1cc(c3c(c1)[nH]c(=O)n3C)OCCO2` gave a ring closure, isolated yield of 13%.

As to `C[C@H]1CN2C[C@@H](OCCOc3cc(cc4c3n(C)c(=O)n4CCC(C)(C)O)Nc3nc2ncc3Cl)C1(F)F` [Compound 34, (1^3R, 1^5S)-2^5-Chloro-1^4,1^4-difluoro-4^1-(3-hydroxy-3-methylbutyl)-1^5,4^3-dimethyl-4^2,4^3-dihydro-4 H-5,8-dioxa-3-aza-4(6,4)-benzo[d]imidazola-2(2,4)-pyrimidina-1 (1,3)-piperidinacyclooctaphan-4^2-one], the DC50 at BCL6 was above 400 nM.

In the case of `C[C@H]1CN2C[C@@H](NCCOc3cc(cc4c3n(C)c(=O)n4CCC(C)(C)O)Nc3nc2ncc3Cl)C1(F)F` [Compound 35, (1^3R, 1^5S)-1^4,1^4,2^5-Trifluoro-4^1-(3-hydroxy-3-methylbutyl)-1^5,4^3-dimethyl-4^2,4^3-dihydro-4^1H-5-oxa-3,8-diaza-4(6,4)-benzo[d]imidazola-2(2,4)-pyrimidina-1 (1,3)-piperidinacyclooctaphan-4^2-one], the DC50 on BCL6 was above 400 nM.

On BCL6, `C[C@H]1CN2C[C@@H](NCCOc3cc(cc4[nH]c(=O)n(C)c34)Nc3nc2ncc3F)C1(F)F` [Compound 37] registered a DC50 above 400 nM.

In turn, `C[C@@H]1CN2C[C@H](NCCOc3cc(cc4[nH]c(=O)n(C)c34)Nc3nc2ncc3F)C1(F)F` [Compound 38] returned a DC50 at BCL6 of 14.2 nM.

Turning to `C[C@@H]1CN2C[C@H](NCCOc3cc(cc4c3n(C)c(=O)n4CCC(C)(C)O)Nc3ccnc2n3)C1(F)F` [Compound 39], the DC50 on BCL6 was 96.7 nM.

Molecule `C[C@@H]1CN2C[C@H](NCCOc3cc(cc4c3n(C)c(=O)n4CCC(C)(O)CO)Nc3nc2ncc3Cl)C1(F)F` (stereo partly drawn) [Compound 40] displayed a DC50 at BCL6 of 3.7 nM.

Consider `C[C@@H]1CN2C[C@H](NCCOc3cc(cc4c3n(C)c(=O)n4C[C@@H](O)C(C)(C)O)Nc3nc2ncc3Cl)C1(F)F` [Compound 41], for which the DC50 at BCL6 was 1 nM.

Consider `C[C@@H]1CN2C[C@H](NCCOc3cc(cc4c3n(C)c(=O)n4C[C@H](O)C(C)(C)O)Nc3nc2ncc3Cl)C1(F)F` [Compound 42], for which it took 8.5 nM to reach half-maximal degradation on BCL6 (DC50).

Molecule `C[C@@H]1CN2C[C@H](NCCOc3cc(cc4c3n(C)c(=O)n4CC[S@](C)(=N)=O)Nc3nc2ncc3Cl)C1(F)F` [Compound 43] displayed a DC50 on BCL6 of 11.3 nM.

For `C[C@@H]1CN2C[C@H](NCCOc3cc(cc4c3n(C)c(=O)n4CC[S@@](C)(=N)=O)Nc3nc2ncc3Cl)C1(F)F` [Compound 44], at BCL6, half-maximal degradation (DC50) was put at 18.9 nM.

Molecule `C[C@@H]1CN2C[C@H](NCCOc3cc(cc4c3n(C)c(=O)n4CCC3(O)COC3)Nc3nc2ncc3Cl)C1(F)F` [Compound 45] registered a DC50 on BCL6 of 8.7 nM.

For the molecule `CNC(=O)COc1cc2cc3ccc2n(c1=O)CCCCO[C@H]1C[C@@H](C)CN(C1)c1ncc(Cl)c(n1)N3` [Compound A, reference compound], the DC50 at BCL6 was above 400 nM.

At BCL6, `CNC(=O)COc1cc2cc3ccc2n(c1=O)CCCCO[C@@H]1C[C@H](C)CN(C1)c1ncc(Cl)c(n1)N3` [Compound B, reference compound] returned a DC50 above 400 nM.
